Measurements published in patent US20210327553A1, “PREDICTION OF ADVERSE DRUG REACTION BASED ON MACHINE-LEARNED MODELS USING PROTEIN FUNCTION SCORES AND CLINICAL FACTORS” (Cipherome, Inc., priority 2020, published 2021).

Columns and labels:
[1] = Retrospective UK Biobank analysis of warfarin ADR records within first 90 days of administration; format: in vivo; settings: n=612, ADR record (ICD9/10) within first 90 days of warfarin administration
Experimental: A retrospective analysis was conducted using genomic and phenotypic data from the UK Biobank (FIG. 2). […] Most common warfarin ADRs listed in the health registry data included non-traumatic, hemorrhage, gastrointestinal bleeding, and “ADRs due to anticoagulant use”.

COVID-19 = settings: limited in-vitro and anecdotal data; cited from earlier work
[2] = prolonged use in patients with liver or kidney problems or immunosuppressed; cited from earlier work

| Structure (SMILES) | ADR prevalence [1] [%] | in-vitro activity against COVID-19 (COVID-19) | cardiotoxicity [2] |
| --- | --- | --- | --- |
| CC(=O)CC(c1ccccc1)c1c(O)c2ccccc2oc1=O (centres unmarked) [warfarin] | 4.41 |  |  |
| CCN(CCO)CCCC(C)Nc1ccnc2cc(Cl)ccc12 (centres unmarked) [hydroxychloroquine] |  | have in-vitro activity against COVID-19 | cadiotoxicity (prolonged QT syndrome of irregular heartbeats) |
| CCN(CC)CCCC(C)Nc1ccnc2cc(Cl)ccc12 (centres unmarked) [chloroquine] |  | have in-vitro activity against COVID-19 | cadiotoxicity (prolonged QT syndrome of irregular heartbeats) |
